Reference: patent US10851412B2, “Cell potency assay for therapeutic potential” (FATE THERAPEUTICS, INC., priority 2013, dated 2020)

Tested on: Human umbilical cord blood
Experiment: Cell potency assay: real-time PCR signature gene expression score of treated cord blood
Type: cell-based
Protocol: Human umbilical cord blood was treated ex vivo with 16,16, dimethyl prostaglandin E2 (dmPGE2) prior to transplantation. Real-time PCR transcript quantitation of gene expression from the treated cord blood cells was used to determine the therapeutic potential of the cells. RNA was extracted from an aliquot (100 uL) of the treated cord blood cells using the PicoPure RNA Isolation kit (Life Technologies) using the manufacturer's recommended protocol. Total RNA was quantified using the Nanodrop 2000 Spectrophotometer (Thermo Scientific). Complimentary DNA (cDNA) was reverse transcribed from 50 ng of total RNA using the High-Capacity cDNA Reverse Transcription Kit (Life Technologies).
Quantitative PCR was performed in triplicate for each gene in the amplified cDNA using StepOne Plus (Applied Biosystems) and Taqman gene expression assays (Life Technologies) and 40 cycles of real-time PCR. Results of the real-time PCR were analyzed using the StepOne Software v2.1 analysis package (Applied Biosystems). Expression values of the transcripts were normalized to the Taqman gene expression average for the housekeeping genes, GAPDH and HPRT1, to determine the relative expression levels (ΔCt values). […]

CCCCC(C)(C)[C@H](O)/C=C/[C@H]1[C@H](O)CC(=O)[C@@H]1C/C=C\CCCC(=O)O [dmPGE2, 16,16, dimethyl prostaglandin E2]
gene expression in the group of signature genes (real-time PCR) (human umbilical cord blood after a two hour treatment): Increased gene expression | gene expression score (standardized Euclidean distance model vs training set) (human umbilical cord blood treated ex vivo, about two hours at 37° C. with 10 μM dmPGE2, test samples n=10, mean +/- SD, positive scores cluster with samples having therapeutic potential): 16.8+/−2.2
